According to US20230416329A1, “A PEPTIDE WITH DISULFIDE BONDS AND INHIBITORY ACTIVITY AGAINST SERINE PROTEASES, DERIVED HYBRID PEPTIDES THEREOF, AND USES THEREOF” (INSTITUTE OF MATERIA MEDICA , CHINESE ACADEMY OF MEDICAL …, priority 2020, published 2023):
≈ marks a conversion by molar mass, not a printed value. Bridge positions count the residues as written; N and C are the ends. Peptide text beside a SMILES is read from it.

Key:
[1] = target: T1, interaction of PCSK9-LDLR (Homo sapiens, UniProt Q8NBP7); assay: PCSK9-LDLR in vitro binding assay (inhibitory rate); settings: sample 50 μM, PCSK9 75 ng/mL
T1 construct: purchased MBL Company, Beijing, China CY-8150
Method: Polypeptide PCSK9_1-14 (SEQ ID NOs: 210-223) is dissolved in pure water or DMSO. 85 μL reaction buffer, 5 μL 1 mM polypeptide sample and 10 μL 750 ng/mL PCSK9 protein was pre-incubated at room temperature for 20 minutes before being added to a 96 well plate. The OD450/540 nm value was measured according to the instructions of the PCSK9-LDLR in Vitro Binding Assay Kit (CY-8150, MBL Company, Beijing, China). Solvent control: replace polypeptide with 5 μL solvent. In 100 μL reaction system, the final concentration of the polypeptide and PCSK9 is 50 μM and 75 ng/mL, respectively.
Inhibition rate of polypeptide (%)=(OD450/540 nm(solvent control)−OD450/540 nm (sample))/OD450/540 nm(solvent control)×100

[2] = target: chymotrypsin (Bos taurus, UniProt P00766); assay: in vitro; settings: for remaining at 0.025 h, 60 μM / remaining at 0.05 h, 60 μM / remaining at 0.075 h, 60 μM / remaining at 0.1 h, 60 μM / remaining at 0.15 h, 60 μM / remaining at 0.25 h, 60 μM / remaining at 0.5 h, 60 μM / remaining at 1 h, 60 μM: isolated enzyme chymotrypsin, pH 7.8, Residual peak area (%)/chymotrypsin
Method in brief: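 Peptide and 0.05 μg/μL chymotrypsin were preincubated at 37 °C for 5 min, then mixed. Aliquots taken from 1.5 up to 60.0 min were quenched with 10% TFA, and remaining peptide was measured as RP-HPLC peak area.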

[3] = target: elastase (Sus scrofa, UniProt P00772); assay: in vitro; settings: for remaining at 0.025 h, 60 μM / remaining at 0.05 h, 60 μM / remaining at 0.075 h, 60 μM / remaining at 0.1 h, 60 μM / remaining at 0.15 h, 60 μM / remaining at 0.25 h, 60 μM / remaining at 0.5 h, 60 μM / remaining at 1 h, 60 μM: isolated enzyme elastase, pH 8, Residual peak area (%)/elastase
Method: FIG. 19. […] At different time point, 25 μL aliquots was taken out, and 10% (v/v) TFA was added to terminate the reaction.
Mix by centrifugation at 8000 rpm for 30 seconds.
Arrange a certain volume of 0.5 μg/μL elastase solution in another sterile EP. Incubate the EP tubes containing peptides and enzymes at 37° C. for 5 min, and then add 4.5 μL of elastase solution to each EP tube containing peptides and mix well. Start timing and remove 25 μL of reaction solution at 1.5, 3.0, 4.5, 6.0, 9.0, 15.0, 30.0, and 60.0 min later, respectively. Add 3.75 μL of 10% TFA to terminate the reaction and mix well by centrifugation at 8000 rpm for 30 seconds.
Referring to the experimental method in Example 5, in vitro stability of salmon Calcitonin analogs with oral administration activity to the enzymatic hydrolysis by trypsin, chymotrypsin and elastase were performed.
Referring to the experimental method in Example 5, in vitro stability of IL-17A inhibitory peptides towards the enzymatic hydrolysis by trypsin, chymotrypsin and elastase were performed.

[4] = target: T2, trypsin (Bos taurus, UniProt P00760); assay: in vitro
T2 sequence (P00760 24-246): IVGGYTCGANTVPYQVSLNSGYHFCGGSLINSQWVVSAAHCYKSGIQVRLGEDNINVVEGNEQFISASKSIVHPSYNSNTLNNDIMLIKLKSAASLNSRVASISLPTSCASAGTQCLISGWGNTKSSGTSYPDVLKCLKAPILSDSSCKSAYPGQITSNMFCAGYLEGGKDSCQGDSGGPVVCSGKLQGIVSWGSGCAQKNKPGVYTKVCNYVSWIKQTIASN
Method in brief: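 Peptides were preincubated for 5 min at 37 °C and then digested with 0.05 μg/μL trypsin solution (stock). Remaining intact peptide was quantified as RP-HPLC peak area.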

[5] = test system: P407-induced hyperlipidemia mice; assay: Subcutaneous injection of PCSK9 inhibitory peptide, serum total cholesterol in P407-induced hyperlipidemia mice; type: in vivo, mouse
Method: The experimental peptide sample was prepared using PEG400 with a final concentration of […], and the final concentration of PEG400 is 20% (w/v). Normal ICR mice were fasted overnight with water ad libitum. The next day, all of the mice were randomly divided into model control group (Con) and polypeptide administration group (2 μmol/kg) according to body weight. Then, all of the mice were intraperitoneally injected with P407 (500 mg/kg) and fed with feed 2 hours later. Six mice were taken as a normal control group (Nor). After 24 hours, the mice in Con were subcutaneously injected with saline containing 20% PEG400, and the mice in the treatment group were given peptides. Then, the blood was taken at different time points after administration to determine the serum total cholesterol (TC) level. In consideration of the complexity of factors affecting serum LDL-C levels, especially the differences between single and long-term administration, the in vivo activity of PCSK9 inhibitory peptide is mainly observed for changes in serum TC levels.

elastase, sequence (P00772 27-266): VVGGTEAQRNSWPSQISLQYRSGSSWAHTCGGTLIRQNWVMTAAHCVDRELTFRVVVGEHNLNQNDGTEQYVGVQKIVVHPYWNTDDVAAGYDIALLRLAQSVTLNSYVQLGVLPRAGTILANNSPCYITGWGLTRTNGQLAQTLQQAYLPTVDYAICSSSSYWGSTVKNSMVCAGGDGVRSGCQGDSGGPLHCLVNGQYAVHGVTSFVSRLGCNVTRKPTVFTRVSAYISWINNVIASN
T1 sequence (Q8NBP7 153-692): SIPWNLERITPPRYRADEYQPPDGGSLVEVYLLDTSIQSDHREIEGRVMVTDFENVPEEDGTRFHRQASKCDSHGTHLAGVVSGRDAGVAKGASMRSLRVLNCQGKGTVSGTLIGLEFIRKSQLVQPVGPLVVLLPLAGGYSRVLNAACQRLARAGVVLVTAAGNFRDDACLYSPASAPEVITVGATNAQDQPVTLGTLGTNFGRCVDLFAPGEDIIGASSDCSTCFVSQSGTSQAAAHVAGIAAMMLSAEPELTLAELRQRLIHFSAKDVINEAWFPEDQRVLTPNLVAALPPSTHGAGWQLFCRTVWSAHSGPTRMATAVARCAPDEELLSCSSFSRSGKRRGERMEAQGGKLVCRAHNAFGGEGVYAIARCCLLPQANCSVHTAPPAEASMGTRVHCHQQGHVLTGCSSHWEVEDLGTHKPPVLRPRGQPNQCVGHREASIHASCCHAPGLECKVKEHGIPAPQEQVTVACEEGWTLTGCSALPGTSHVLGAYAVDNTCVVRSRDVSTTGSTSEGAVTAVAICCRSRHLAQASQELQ
T1 sequence (Q8NBP7 31-152 partner limits assumed): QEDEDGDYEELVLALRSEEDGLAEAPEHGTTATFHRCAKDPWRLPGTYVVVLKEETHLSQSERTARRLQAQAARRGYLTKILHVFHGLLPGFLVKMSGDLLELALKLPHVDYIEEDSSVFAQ

With `CC(C)C[C@H](NC(=O)[C@H](Cc1ccc(O)cc1)NC(=O)[C@H](CCC(=O)O)NC(=O)[C@H](CCC(=O)O)NC(=O)[C@H](Cc1c[nH]c2ccccc12)NC(=O)[C@H](CO)NC(=O)[C@@H](NC(=O)[C@H](Cc1ccccc1)NC(=O)[C@@H](NC(=O)[C@@H](N)[C@@H](C)O)C(C)C)[C@@H](C)O)C(=O)N[C@@H](CC(=O)O)C(=O)N[C@@H](Cc1c[nH]c2ccccc12)C(=O)N[C@H](C(=O)O)C(C)C` [PCSK9_1, reference compound] the inhibition at 50 µM [1] was 26 ± 10%, the “Residual peak area (%)/chymotrypsin” value [2] was 100.0 ± 0.0% and the “stability towards chymotrypsin hydrolysis (in words)” value [2] was “easily degraded by chymotrypsin and elastase”. The remaining at 0.025 h, 60 μM [2] was 82.3 ± 5%, the remaining at 0.05 h, 60 μM [2] was 80.7 ± 3.3% and the remaining at 0.075 h, 60 μM [2] was 80.1 ± 2%. The remaining at 0.1 h, 60 μM [2] was 79.1 ± 5.6%, the remaining at 0.15 h, 60 μM [2] was 75.5 ± 1.6% and the remaining at 0.25 h, 60 μM [2] was 71.2 ± 2.4%. For the same compound, the remaining at 0.5 h, 60 μM [2] was 62.7 ± 2.6%, the remaining at 1 h, 60 μM [2] was 47.7 ± 2% and the “Residual peak area (%)/elastase” value [3] was 100.0 ± 0.0%. For the same compound, the “stability towards elastase hydrolysis (in words)” value [3] was “easily degraded by chymotrypsin and elastase”, the remaining at 0.025 h, 60 μM [3] was 95.4 ± 0.9% and the remaining at 0.05 h, 60 μM [3] was 90.6 ± 2.4%. The remaining at 0.075 h, 60 μM [3] was 83.3 ± 1.8%, the remaining at 0.1 h, 60 μM [3] was 85.5 ± 2.7% and the remaining at 0.15 h, 60 μM [3] was 79.6 ± 0.8%. The remaining at 0.25 h, 60 μM [3] was 66.8 ± 0.8%, the remaining at 0.5 h, 60 μM [3] was 52.9 ± 1.5% and the remaining at 1 h, 60 μM [3] was 28.9 ± 0.7%. For the same compound, the “stability towards trypsin hydrolysis (in words)” value [4] was “stable towards trypsin”, the “serum total cholesterol (TC) level after subcutaneous injection (in words)” value ([5]; 2 μmol/kg single s.c., P407-induced hyperlipidemia mice) was “little effect on lowering total cholesterol” and the “TC 30 min” value ([5]; serum, subcutaneous 2 μmol/kg, 30 min after administration, mean ± sd) was 3925 ± 1330 µg/mL (≈ 2340 µM). The “TC 60 min” value ([5]; serum, subcutaneous 2 μmol/kg, 60 min after administration, mean ± sd) was 3350 ± 1117 µg/mL (≈ 2000 µM), the “TC 90 min” value ([5]; serum, subcutaneous 2 μmol/kg, 90 min after administration, mean ± sd) was 3832 ± 1259 µg/mL (≈ 2290 µM) and the “TC 120 min” value ([5]; serum, subcutaneous 2 μmol/kg, 120 min after administration, mean ± sd) was 370.4 ± 122.3 mg/dL.
For `CC[C@H](C)[C@@H]1NC(=O)[C@@H]2CCCN2C(=O)[C@@H]2CCCN2C(=O)[C@H]([C@@H](C)CC)NC(=O)[C@H](CO)NC(=O)[C@H](CCCCN)NC(=O)[C@H]([C@@H](C)O)NC(=O)[C@H](C)NC(=O)[C@H](CCCNC(=N)N)NC(=O)CNC(=O)[C@@H](NC(=O)[C@@H](NC(=O)[C@H](Cc2ccc(O)cc2)NC(=O)[C@H](CC(=O)O)NC(=O)[C@H](CC(C)C)NC(=O)[C@H](Cc2ccc(O)cc2)NC(=O)[C@H](CCC(=O)O)NC(=O)[C@H](CCC(=O)O)NC(=O)[C@@H](N)Cc2c[nH]c3ccccc23)C(C)C)CSSC[C@@H](C(=O)N[C@@H](Cc2ccccc2)C(=O)NCC(=O)N[C@H](C(=O)N[C@H](C(=O)N[C@@H](Cc2ccccc2)C(=O)N[C@H](C(=O)N[C@@H](CO)C(=O)O)[C@@H](C)O)C(C)C)[C@@H](C)O)NC1=O` [PCSK9_6] (H-WEEYLDYVCGRATKSIPPICFGTVFTS-OH; disulfide 9-20), the inhibition at 50 µM [1] was 87 ± 1.1%, the “Residual peak area (%)/chymotrypsin” value [2] was 100.0 ± 0.0% and the “stability towards chymotrypsin hydrolysis (in words)” value [2] was “certain inhibitory effects on the other two proteases chymotrypsin and elastase”. It also gave a remaining at 0.025 h, 60 μM [2] of 59.9 ± 8.2%, a remaining at 0.05 h, 60 μM [2] of 47.1 ± 8% and a remaining at 0.075 h, 60 μM [2] of 33.6 ± 3%. The remaining at 0.1 h, 60 μM [2] was 33.9 ± 3.2%, the remaining at 0.15 h, 60 μM [2] was 25.9 ± 3.3% and the remaining at 0.25 h, 60 μM [2] was 14.5 ± 0.8%. For the same compound, the remaining at 0.5 h, 60 μM [2] was 2.2 ± 0.1%, the remaining at 1 h, 60 μM [2] was 1 ± 0.9% and the “Residual peak area (%)/elastase” value [3] was 100.0 ± 0.0%. For the same compound, the “stability towards elastase hydrolysis (in words)” value [3] was “certain inhibitory effects on the other two proteases chymotrypsin and elastase”, the remaining at 0.025 h, 60 μM [3] was 62.9 ± 4.8% and the remaining at 0.05 h, 60 μM [3] was 59.3 ± 10.9%. It also gave a remaining at 0.075 h, 60 μM [3] of 56.4 ± 5.3%, a remaining at 0.1 h, 60 μM [3] of 55.3 ± 6.8% and a remaining at 0.15 h, 60 μM [3] of 67.8 ± 9.3%. The remaining at 0.25 h, 60 μM [3] was 48.9 ± 9.4%, the remaining at 0.5 h, 60 μM [3] was 39.6 ± 1.2% and the remaining at 1 h, 60 μM [3] was 48.3 ± 9.4%.
